The values below come from ChEMBL document CHEMBL1201862, “PubChem BioAssay data set” (2004).

One test deals with Vero. The test is described as follows: Vero cell cytotoxicity, cytotoxicity control for flavivirus capping enzyme inhibitors (AID 588742). Type of test: functional. Conditions: Chlorocebus sabaeus.
Test [1] deals with Intestinal-type alkaline phosphatase (Homo sapiens, UniProt P09923). The test is described as follows: inhibition of human intestinal alkaline phosphatase – biochemical, dose response (AID 488876). Type of test: functional.
Test [2] concerns the target T1, Alkaline phosphatase, tissue-nonspecific isozyme (Homo sapiens, UniProt P05186).
T1 sequence (P05186 whole entry): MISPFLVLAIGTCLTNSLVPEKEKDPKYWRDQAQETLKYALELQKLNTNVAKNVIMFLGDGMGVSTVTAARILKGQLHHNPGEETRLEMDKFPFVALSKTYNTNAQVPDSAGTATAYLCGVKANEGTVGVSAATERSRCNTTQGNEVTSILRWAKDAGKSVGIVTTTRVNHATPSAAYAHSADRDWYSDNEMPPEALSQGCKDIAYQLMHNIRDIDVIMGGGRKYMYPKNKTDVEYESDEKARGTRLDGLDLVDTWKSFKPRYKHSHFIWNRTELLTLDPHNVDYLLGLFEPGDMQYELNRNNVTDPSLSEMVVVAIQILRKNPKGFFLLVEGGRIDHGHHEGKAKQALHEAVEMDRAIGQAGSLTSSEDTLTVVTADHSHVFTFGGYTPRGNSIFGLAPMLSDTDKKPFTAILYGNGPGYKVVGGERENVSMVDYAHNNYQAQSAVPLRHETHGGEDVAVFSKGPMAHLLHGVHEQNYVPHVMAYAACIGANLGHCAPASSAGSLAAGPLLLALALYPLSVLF
The test is described as follows: TNAP enzyme inhibition by screening hits, dose response, selectivity assay for mouse IAP inhibitor project, biochemical, human TNAP, uHTS hits (AID 488906). In kind it is functional.

In test [3] the target is Intestinal-type alkaline phosphatase (Mus musculus, UniProt P24822). As to the kind of experiment: PubChem AID 488785. In kind it is functional.
In test [4] the target is G-protein coupled receptor 55 (Homo sapiens, UniProt Q9Y2T6). As to the kind of experiment: GPR55 antagonists, SAR follow-up, counter-screen for GPR35 antagonist project, imaging, image-based (AID 2397). Type of test: functional. (In general: The purpose of a counterscreen is to sort out artefacts and off-target activity.)
Test [5] concerns the target Lysine-specific demethylase 4A (Homo sapiens, UniProt O75164). As to the kind of experiment: JMJD2A histone demethylase inhibitors, dose response, selectivity assay for GASC-1 inhibitor project, biochemical, DELFIA europium, cherry-picked samples (AID 488840).
The target of test [6] is DNA dC->dU-editing enzyme APOBEC-3G (Homo sapiens, UniProt Q9HC16). As to the kind of experiment: Dose Response confirmation of small molecule APOBEC3G DNA Deaminase Inhibitors via a fluorescence-based single-stranded DNA deaminase assay. [Related pubchem assays (depositor defined):AID493012, AID493028]. In kind it is functional.
Test [7] deals with Tyrosyl-DNA phosphodiesterase 2 (Homo sapiens, UniProt O95551). The test is described as follows: human TDP2 enzyme inhibitors, dose response, biochemical, epi absorbance, IC50 (AID 743297).
For test [8], the target named is Lysine-specific demethylase 4C (Homo sapiens, UniProt Q9H3R0). The test is described as follows: GASC-1 (JMJD2C) histone demethylase inhibitors, dose response, biochemical, DELFIA europium, cherry-picked samples (AID 488835). In kind it is functional.
For test [9], the target named is Delta-type opioid receptor (Homo sapiens, UniProt P41143). As to the kind of experiment: SAR Analysis of Agonists of the DOR Receptor using an Image-Based Assay - Set 3. [Related pubchem assays (depositor defined):AID1777, AID1786]. Type of test: functional.
In the next test the target is Mu-type opioid receptor (Homo sapiens, UniProt P35372). The test is described as follows: SAR Analysis of Agonists of the MOR Receptor using an Image-Based Assay - Set 3. [Related pubchem assays (depositor defined):AID1777, AID1785, AID1786, AID1966, AID2133, AID2136, AID2284, AID2285, AID2352]. In kind it is functional.
Test [10] deals with T2, Kappa-type opioid receptor (Homo sapiens, UniProt P41145). As to the kind of experiment: SAR analysis of small molecule agonists of the kappa opioid receptor via a luminescent beta-arrestin assay - Set 3. [Related pubchem assays (depositor defined):AID1777, AID1785, AID1786, AID1966, AID2133, AID2136, AID2284, AID2500]. Type of test: functional.
For test [11], the target named is T2, Kappa-type opioid receptor. The test is described as follows: KOR agonist analogs, arrestin-GFP redistribution, SAR follow-up, imaging, image-based, set 3 (AID 488833). Type of test: functional.
The target in another test is SUMO E1/E2 (Homo sapiens, UniProt P63279+Q9UBE0+Q9UBT2). As to the kind of experiment: SAR analysis of SUMOylation using HTRF in an in-Vitro dose response assay. [Related pubchem assays (depositor defined):AID2006, AID2011, AID2018, AID2069, AID2658]. In kind it is functional.

The structures appear in SMILES notation. Activity calls are given as the source filed them.

T2 sequence (P41145 whole entry): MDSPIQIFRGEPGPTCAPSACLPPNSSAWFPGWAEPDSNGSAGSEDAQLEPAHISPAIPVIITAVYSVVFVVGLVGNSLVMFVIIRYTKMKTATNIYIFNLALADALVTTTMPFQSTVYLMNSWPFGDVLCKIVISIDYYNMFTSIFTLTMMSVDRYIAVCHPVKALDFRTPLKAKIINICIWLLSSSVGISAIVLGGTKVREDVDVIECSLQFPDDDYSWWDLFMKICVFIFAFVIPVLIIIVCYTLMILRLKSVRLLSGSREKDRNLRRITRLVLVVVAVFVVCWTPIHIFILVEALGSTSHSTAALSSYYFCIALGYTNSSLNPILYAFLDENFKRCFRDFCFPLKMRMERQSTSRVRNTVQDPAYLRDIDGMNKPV
Sequence of G-protein coupled receptor 55 (Q9Y2T6 whole entry): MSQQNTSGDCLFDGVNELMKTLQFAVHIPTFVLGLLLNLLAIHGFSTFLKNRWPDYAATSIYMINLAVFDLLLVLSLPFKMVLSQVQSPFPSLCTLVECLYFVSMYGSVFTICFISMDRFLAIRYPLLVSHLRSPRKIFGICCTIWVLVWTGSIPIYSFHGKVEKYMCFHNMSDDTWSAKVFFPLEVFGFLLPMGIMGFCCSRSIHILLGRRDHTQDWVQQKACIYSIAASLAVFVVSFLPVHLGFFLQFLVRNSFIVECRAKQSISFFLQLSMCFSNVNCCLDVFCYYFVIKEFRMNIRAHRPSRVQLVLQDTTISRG
Sequence of Mu-type opioid receptor (P35372 whole entry): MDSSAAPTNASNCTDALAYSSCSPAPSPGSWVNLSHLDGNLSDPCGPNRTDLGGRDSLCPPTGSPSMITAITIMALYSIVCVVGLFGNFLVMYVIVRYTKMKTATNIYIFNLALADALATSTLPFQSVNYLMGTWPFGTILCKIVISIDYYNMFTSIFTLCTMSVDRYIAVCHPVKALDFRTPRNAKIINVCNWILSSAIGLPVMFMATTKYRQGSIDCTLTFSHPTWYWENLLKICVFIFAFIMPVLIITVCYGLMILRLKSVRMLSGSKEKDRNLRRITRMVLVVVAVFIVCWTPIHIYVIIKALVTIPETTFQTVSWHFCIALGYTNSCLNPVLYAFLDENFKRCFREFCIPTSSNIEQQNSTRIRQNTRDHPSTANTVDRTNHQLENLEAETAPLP
Sequence of Tyrosyl-DNA phosphodiesterase 2 (O95551 whole entry): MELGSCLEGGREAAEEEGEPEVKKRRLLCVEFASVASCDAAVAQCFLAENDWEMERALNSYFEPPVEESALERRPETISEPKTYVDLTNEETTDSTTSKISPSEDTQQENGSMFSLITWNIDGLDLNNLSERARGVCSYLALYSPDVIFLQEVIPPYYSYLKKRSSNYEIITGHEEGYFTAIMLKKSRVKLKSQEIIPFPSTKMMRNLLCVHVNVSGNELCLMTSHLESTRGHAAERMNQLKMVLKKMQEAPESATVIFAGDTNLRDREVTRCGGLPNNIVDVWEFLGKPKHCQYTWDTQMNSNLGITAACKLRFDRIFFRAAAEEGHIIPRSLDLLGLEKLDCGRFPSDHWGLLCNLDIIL
Sequence of Delta-type opioid receptor (P41143 whole entry): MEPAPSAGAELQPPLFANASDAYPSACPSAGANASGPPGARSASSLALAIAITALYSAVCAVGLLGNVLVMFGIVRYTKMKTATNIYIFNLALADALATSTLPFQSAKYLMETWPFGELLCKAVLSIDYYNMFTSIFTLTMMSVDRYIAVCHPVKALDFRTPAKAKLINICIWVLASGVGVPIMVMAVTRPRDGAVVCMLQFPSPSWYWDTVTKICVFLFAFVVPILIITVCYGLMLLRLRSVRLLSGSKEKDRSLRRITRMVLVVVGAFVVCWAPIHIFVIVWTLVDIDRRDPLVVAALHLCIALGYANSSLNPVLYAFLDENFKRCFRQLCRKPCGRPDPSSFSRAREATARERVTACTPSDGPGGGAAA
Sequence of DNA dC->dU-editing enzyme APOBEC-3G (Q9HC16 whole entry): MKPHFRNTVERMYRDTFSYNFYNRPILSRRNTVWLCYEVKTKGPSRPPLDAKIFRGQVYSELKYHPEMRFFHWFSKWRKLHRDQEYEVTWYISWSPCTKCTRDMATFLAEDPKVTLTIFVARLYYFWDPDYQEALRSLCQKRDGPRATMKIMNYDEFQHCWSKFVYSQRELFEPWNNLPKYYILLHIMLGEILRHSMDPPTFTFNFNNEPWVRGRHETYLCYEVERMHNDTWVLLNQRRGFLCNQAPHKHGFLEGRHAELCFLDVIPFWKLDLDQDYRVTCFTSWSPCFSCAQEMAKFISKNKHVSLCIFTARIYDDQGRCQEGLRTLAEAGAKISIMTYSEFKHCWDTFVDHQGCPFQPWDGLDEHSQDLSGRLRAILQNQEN
Sequence of Intestinal-type alkaline phosphatase (Mus musculus, UniProt P24822) (P24822 whole entry): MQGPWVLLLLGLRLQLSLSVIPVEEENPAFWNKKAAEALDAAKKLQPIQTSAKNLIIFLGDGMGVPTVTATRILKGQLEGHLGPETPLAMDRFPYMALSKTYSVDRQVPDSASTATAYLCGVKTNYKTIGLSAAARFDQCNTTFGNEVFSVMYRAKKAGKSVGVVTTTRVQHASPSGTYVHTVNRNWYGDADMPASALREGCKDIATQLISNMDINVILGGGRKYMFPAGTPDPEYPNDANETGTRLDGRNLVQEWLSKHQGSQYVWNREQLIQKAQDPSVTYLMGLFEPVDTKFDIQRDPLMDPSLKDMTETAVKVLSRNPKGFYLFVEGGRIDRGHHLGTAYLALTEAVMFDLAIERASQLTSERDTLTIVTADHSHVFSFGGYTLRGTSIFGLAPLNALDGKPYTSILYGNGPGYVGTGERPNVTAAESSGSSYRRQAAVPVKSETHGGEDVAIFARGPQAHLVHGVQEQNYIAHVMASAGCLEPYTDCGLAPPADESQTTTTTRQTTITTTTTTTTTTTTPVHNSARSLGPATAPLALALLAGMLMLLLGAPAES
Sequence of Lysine-specific demethylase 4A (O75164 whole entry): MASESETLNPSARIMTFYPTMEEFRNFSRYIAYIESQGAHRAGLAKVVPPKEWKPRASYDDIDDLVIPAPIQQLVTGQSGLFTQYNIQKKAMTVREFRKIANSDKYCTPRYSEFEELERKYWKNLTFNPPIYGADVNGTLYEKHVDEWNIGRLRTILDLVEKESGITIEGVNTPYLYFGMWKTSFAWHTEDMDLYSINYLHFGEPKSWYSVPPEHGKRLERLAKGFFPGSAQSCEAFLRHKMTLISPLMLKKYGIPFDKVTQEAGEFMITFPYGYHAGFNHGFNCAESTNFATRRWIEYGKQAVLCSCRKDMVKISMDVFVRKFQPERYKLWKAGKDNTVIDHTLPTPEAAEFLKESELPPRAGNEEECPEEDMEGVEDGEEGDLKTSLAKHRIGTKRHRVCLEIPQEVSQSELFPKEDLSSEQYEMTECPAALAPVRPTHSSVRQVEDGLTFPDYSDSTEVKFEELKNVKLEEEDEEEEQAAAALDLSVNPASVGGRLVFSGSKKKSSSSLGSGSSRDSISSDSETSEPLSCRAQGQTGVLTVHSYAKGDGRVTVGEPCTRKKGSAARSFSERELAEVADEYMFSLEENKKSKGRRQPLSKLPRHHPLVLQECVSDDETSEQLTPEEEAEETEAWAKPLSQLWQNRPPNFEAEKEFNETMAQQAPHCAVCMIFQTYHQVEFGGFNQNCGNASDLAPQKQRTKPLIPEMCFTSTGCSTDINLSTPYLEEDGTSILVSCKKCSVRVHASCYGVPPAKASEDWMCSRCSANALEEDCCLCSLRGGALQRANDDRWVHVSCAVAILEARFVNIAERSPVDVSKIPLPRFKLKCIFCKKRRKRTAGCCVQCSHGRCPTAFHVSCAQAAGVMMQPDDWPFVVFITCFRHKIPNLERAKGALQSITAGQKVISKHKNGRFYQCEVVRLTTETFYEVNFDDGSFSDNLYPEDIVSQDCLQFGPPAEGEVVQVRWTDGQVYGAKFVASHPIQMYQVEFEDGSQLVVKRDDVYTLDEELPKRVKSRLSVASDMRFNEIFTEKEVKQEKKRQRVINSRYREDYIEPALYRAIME
Sequence of Lysine-specific demethylase 4C (Q9H3R0 whole entry): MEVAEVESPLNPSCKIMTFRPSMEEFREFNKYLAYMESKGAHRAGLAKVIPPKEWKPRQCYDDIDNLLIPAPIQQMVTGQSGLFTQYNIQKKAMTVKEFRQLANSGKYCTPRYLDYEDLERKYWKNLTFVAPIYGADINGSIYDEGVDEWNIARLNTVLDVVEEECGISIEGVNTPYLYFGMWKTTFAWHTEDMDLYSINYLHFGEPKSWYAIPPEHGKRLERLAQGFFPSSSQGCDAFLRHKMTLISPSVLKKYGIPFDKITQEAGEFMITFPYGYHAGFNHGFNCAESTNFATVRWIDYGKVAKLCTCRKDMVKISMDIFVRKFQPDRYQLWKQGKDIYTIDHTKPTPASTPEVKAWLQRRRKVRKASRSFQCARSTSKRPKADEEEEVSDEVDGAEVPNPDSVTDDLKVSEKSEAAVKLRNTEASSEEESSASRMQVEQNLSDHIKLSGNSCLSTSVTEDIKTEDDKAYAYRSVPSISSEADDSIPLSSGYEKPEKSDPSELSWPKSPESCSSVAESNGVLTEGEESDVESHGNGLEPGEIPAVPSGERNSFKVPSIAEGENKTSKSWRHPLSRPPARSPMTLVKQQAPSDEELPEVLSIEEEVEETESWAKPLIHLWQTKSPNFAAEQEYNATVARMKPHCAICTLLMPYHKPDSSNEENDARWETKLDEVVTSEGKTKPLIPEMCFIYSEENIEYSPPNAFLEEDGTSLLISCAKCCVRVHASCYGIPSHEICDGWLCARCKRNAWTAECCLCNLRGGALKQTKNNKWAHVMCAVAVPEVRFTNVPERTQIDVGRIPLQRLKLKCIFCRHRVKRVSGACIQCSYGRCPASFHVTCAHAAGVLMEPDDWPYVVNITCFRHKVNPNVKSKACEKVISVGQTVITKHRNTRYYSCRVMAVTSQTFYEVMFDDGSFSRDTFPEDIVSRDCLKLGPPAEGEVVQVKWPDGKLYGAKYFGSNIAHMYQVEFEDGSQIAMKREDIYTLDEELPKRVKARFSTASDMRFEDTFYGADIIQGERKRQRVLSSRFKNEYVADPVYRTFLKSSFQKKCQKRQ

One may read the CC50 as the concentration at which the toxic effect on the cells reaches its halfway point. For orientation: IC50 means the concentration that gives 50% inhibition. `CCOC(=O)C1=C(C)N=c2s/c(=C/c3cccc([N+](=O)[O-])c3O)c(=O)n2C1c1ccc(OC)cc1OC` (centres undefined): the CC50 in the test on Vero is 39.4 µM (active). Also, the IC50 in [1] was > 100 µM (inactive); in [2], 77.1 µM (active); in test [3], 4.77 µM (active).
Consider `Fc1ccc(N2CCN(c3ncnc4c3cnn4Cc3ccc(Cl)cc3Cl)CC2)cc1`, for which, in [4], the IC50 was > 32 µM (inactive).
The AC50 is the concentration at which the activity in the assay is half-maximal. For `O=C1NC(=O)C(Sc2ccccc2[N+](=O)[O-])C(=O)N1`, the AC50 in [5] is 2.28 µM (active); in test [8] it was 1.23 µM (active). Further, the IC50 in test [6] is 52.7 µM (active); in test [7], 36.3 µM (inactive).
What is called EC50 is the concentration needed to bring the measured effect to its halfway point. As for `Fc1cc(F)cc(CSc2nnc(-c3ccccn3)n2Cc2cccs2)c1`, the EC50 in [9] is > 32 µM (inactive); at Mu-type opioid receptor, > 32 µM (inactive); in [10], 7.2 µM (active); in test [11] it was 3.58 µM (active).
Regarding `Sc1nnc(-c2cc(-c3ccccc3)[nH]n2)n1N=Cc1c(Cl)cccc1Cl`, the IC50 at SUMO E1/E2 was 82 µM (active).
